Results reported in patent publication US20240252508A1, “Novel glucose uptake inhibitors for use in the treatment of cancer” (NOVELYEAST BV, priority 2021, published 2024).

Legend:
[1] = tested on: tps1Δ cells; test: Growth rescue of tps1Δ strain on glucose (growth curves, 2% galactose medium); type: cell-based, S. cerevisiae; settings: 100 μM compound, 2.5 mM glucose
Method: Growth curves were made by measuring OD595 in a 96-well plate using the Multiskan™ FC Microplate Photometer (Thermo Fisher Scientific). Typically, for tps1Δ rescue experiments (FIG. 2b-e; FIG. 4a), cells were (pre)grown in Complete Synthetic medium containing 2% galactose.
Compounds were always added 10 min prior to glucose addition to ensure maximal interaction between the cells and compounds. Cells originating from the preculture were harvested, washed in medium without sugar, after which they were resuspended to an OD of 0.1 in 200 μL of the appropriate medium. At least three technical replicates were included per condition. OD595 was measured at 30° C. every 30 min with a 10-min shaking interval.

[2] = tested on: A549 lung adenocarcinoma cells; test: A549 cell proliferation / growth inhibition; type: cell-based, human; settings: for Selected from primary screen for growth inhibition of A549 cells at 50 μM: 50 μM compound, 1 mM glucose; for Selected for having an IC50 ratio (10 mM glucose: 1 mM glucose) of A549 growth higher than WBC-A: IC50 on 10 mM vs 1 mM glucose, compared with WBC-A
Method: The analog library (n=203) was screened for inhibition of growth of A549 cells on RPMI medium supplemented with 1 mM glucose. DMSO (green bar) and WBC-A (orange bar) served as negative and positive control, respectively. In addition, the reference glucose transport inhibitors STF-31, Fasentin, BAY-876, WZB-117 and Cytochalasin B were included and indicated in red. Compounds were added at 50 μM concentration. Number of cells was determined by counting nuclei stained by Hoechst after three days of growth.
For both adherent A549 and MCF10Δ H-RAS^V12 cell lines, growth curves were established using the IncuCyte® ZOOM technology. By collecting phase contrast images, the IncuCyte® software provides a calculated confluency percentage from which growth curves can be deducted.
Cells were seeded at a density of 1000-1500 cells/well in a Nunc-Edge™ 96-well plate (Thermo Fisher Scientific) and growth was typically measured over 3 to 5 days. For the measurement of apoptosis induction using the MCF10Δ H-RAS^V12 cell line, the IncuCyte® Caspase-3/7 green dye was added to the medium in the recommended concentration at the beginning of the growth curve experiment. Apoptosis was detected by taking fluorescent images by excitation at 488 nm followed by IncuCyte® software analysis. Cell growth of the KMS-12-PE multiple myeloma cell line, which grows in suspension, was measured by manual cell counting. Cells were initially seeded at a density of 10^4 cells/well and incubated for 4 days after which the cell number was counted. For all cell lines, the same medium used for pregrowth was also used for the growth curve experiment, albeit with different glucose concentrations depending on the experimental design. With compound administration, the final concentration of DMSO never exceeded 0.1%. Typically, at least four technical repeats were included per condition.

Structure (SMILES) | Rescue of the tps1Δ strain on 2.5 mM glucose at 100 μM [1] | Selected from primary screen for growth inhibition of A549 cells at 50 μM [2] | Selected for having an IC50 ratio (10 mM glucose: 1 mM glucose) of A549 growth higher than WBC-A [2]
Cc1nc(Sc2nnc(C)[nH]2)c2c(-c3ccccc3)csc2n1 [13A] | No | No | 
Cc1nc(SCC(=O)Nc2ccccc2-c2ccccc2)c2c(-c3cccs3)csc2n1 [13B] | No | Yes | Higher IC50 ratio, but false-positive
Cc1sc2nc(-c3cccnc3)nc(SCCO)c2c1-c1ccccc1 [13C] | No | Yes | Lower IC50 ratio
Cc1nc(SCC(N)=O)c2c(-c3cccs3)csc2n1 [14A] | Yes | No | 
Cc1nc(SC(C)C(=O)Nc2ccc(S(N)(=O)=O)cc2)c2c(-c3cccs3)csc2n1 (stereo not shown) [14B] | No | Yes | Lower IC50 ratio
COC(=O)CSc1nc(C)nc2sc3c(c12)CCC3 [14C] | No | No | 
Cc1nc(SCCC#N)c2c(-c3cccs3)csc2n1 [15A] | No | No | 
COCCCNC(=O)CSc1nc(C)nc2scc(-c3cccs3)c12 [15B] | Yes | No | 
Cc1nc(NCC(=O)Nc2ccccc2Br)c2c(-c3cccs3)csc2n1 [15C] | No | Yes | Higher IC50 ratio and confirmed
Cc1sc2nc(-c3cccs3)nc(Sc3nnc(C)n3C)c2c1C [16A] | No | No | 
Cc1nc(NCCCN2CCC(O)CC2)c2c(-c3cccs3)csc2n1 [16B] | No | No | 
CCn1c(CCC(N)=O)nnc1Sc1nc(C)nc2scc(-c3cccs3)c12 [16C] | Yes | Yes | Lower IC50 ratio
Cc1sc2nc(CN3CCC(C)CC3)nc(Sc3nnc(C4CC4)n3CCC(N)=O)c2c1C [17A] | No | Yes | Lower IC50 ratio
CC(=O)Nc1ccc(C(=O)CSc2nc(C)nc3scc(-c4cccs4)c23)cc1 [17B] | No | Yes | Higher IC50 ratio, but false-positive
OCCSc1ncnc2sc3c(c12)CCC3 [17C] | No | No | 
Cc1nc(SCC(=O)C(C)(C)C)c2c(-c3cccs3)csc2n1 [18A] | No | Yes | Lower IC50 ratio
Cc1nc(SCC(=O)NC(C)(C#N)C2CC2)c2c(-c3cccs3)csc2n1 (stereo not shown) [18B] | No | Yes | Higher IC50 ratio, but false-positive
COc1ccc(-c2csc3nc(C)nc(SCCO)c23)cc1OC [18C] | No | No | 
Cc1nnc(Sc2ncnc3scc(-c4ccccc4)c23)n1C [19A] | No | No | 
Cc1nc(SCC(=O)Nc2ccccc2C#N)c2c(-c3cccs3)csc2n1 [19B] | No | No | 

Structure (SMILES) | Rescue of the tps1Δ strain on 2.5 mM glucose at 100 μM [1] | Selected from primary screen for growth inhibition of A549 cells at 50 μM [2] | Selected for having an IC50 ratio (10 mM glucose: 1 mM glucose) of A549 growth higher than WBC-A [2]
Cc1nc(SCC(=O)Nc2c(Cl)cccc2C(F)(F)F)c2c(-c3cccs3)csc2n1 [19C] | No | No | 
COc1ccc(-c2csc3nc(C)nc(Sc4nnc(-c5ccoc5C)n4C)c23)cc1OC [20A] | No | Yes | Lower IC50 ratio
Cc1ccc(-c2csc3ncnc(SCC(=O)N(C)Cc4ccco4)c23)cc1 [20B] | No | Yes | Lower IC50 ratio
Cc1nc(Sc2nnnn2-c2ccccc2C)c2c(-c3cccs3)csc2n1 [20C] | No | Yes | Lower IC50 ratio
COc1ccc(-c2csc3ncnc(Sc4nnc(-c5cccc(C)c5)n4CC(N)=O)c23)cc1 [21A] | No | Yes | Lower IC50 ratio
COc1ccc(OC)c(NC(=O)CSc2nc(C)nc3scc(-c4cccs4)c23)c1 [21B] | No | No | 
Cc1nc(SCC(C#N)CCC#N)c2c(-c3cccs3)csc2n1 (stereo not shown) [21C] | No | No | 
c1ccc(-c2cc3c(N4CCCC4c4nnc5n4CCCCC5)ncnc3s2)cc1 (stereo not shown) [22A] | No | No | 
Cc1nc(SCC(=O)N(Cc2ccccc2)Cc2ccccc2)c2c(-c3cccs3)csc2n1 [22B] | No | No | 
Cc1nc(SCCO)c2c3c(sc2n1)CCCC3 [22C] | No | No | 
Cc1nc(Sc2nnc(-c3cccnc3)n2C)c2c(-c3cccs3)csc2n1 [23A] | Yes | Yes | Lower IC50 ratio
COCCNC(=O)CN(C)c1nc(C)nc2scc(-c3cccs3)c12 [23B] | No | Yes | Lower IC50 ratio
OCCSc1nc(-c2cccs2)nc2scc(-c3ccccc3)c12 [23C] | No | Yes | Lower IC50 ratio
Cc1nc(Sc2nnc(-c3cccnc3)n2C2CC2)c2c(-c3cccs3)csc2n1 [24A] | No | Yes | Lower IC50 ratio
Cc1nc(NCC(=O)N2CCCC2)c2c(-c3cccs3)csc2n1 [24B] | No | Yes | Lower IC50 ratio
Cc1nc(SCCO)c2c3c(sc2n1)CCC3 [24C] | No | No | 
Cc1nc(Sc2nnc(-c3ccco3)n2C)c2c(-c3cccs3)csc2n1 [25A] | No | No | 
Cc1nc(N2CCN(CCO)CC2)c2c(-c3cccs3)csc2n1 [25B] | No | No | 
Cc1nc(Sc2cccc(C(F)(F)F)c2)c2c(-c3cccs3)csc2n1 [25C] | No | Yes | Lower IC50 ratio
